Key:
[1] = system: IL-5 mediated survival of human eosinophils; assay: IL-5 mediated eosinophil survival assay; type: cell-based; conditions: statement in words
Protocol: Assay 6: IL-5 Mediated Eosinophil Survival Assay
The potency of the test compound for IL-5 mediated eosinophil survival was measured in human eosinophils isolated from human whole blood (AllCells). Because IL-5 signals through JAK, this assay provides a measure of JAK cellular potency.
Human eosinophils were isolated from fresh human whole blood (AllCells) of healthy donors. Blood was mixed with 4.5% Dextran (Sigma-Aldrich) in a 0.9% sodium chloride solution (Sigma-Aldrich). Red blood cells were left to sediment for 35 minutes. The leukocyte rich upper layer was removed and layered over Ficoll-Paque (GE Healthcare) and centrifuged at 600 g for 30 minutes. The plasma and mononuclear cell layers were removed before the granulocyte layer was lysed with water to remove any contaminating red blood cells. […] Purity was analyzed using a LSRII flow cytometer (BD Biosciences). […]
After cytokine stimulation, cells were centrifuged at 300 g for 5 min and washed twice with cold DPBS (Life Technologies). To access viability and apoptosis, cells were incubated with Propidium Iodide (Thermo Fisher Scientific) and APC Annexin V (BD Biosciences) and analyzed using a LSRII flow cytometer (BD Biosciences). IC50 values were determined from analysis of the viability curves of percent cell viability vs compound concentration. Data are expressed as pIC50 (negative decadic logarithm IC50) values.

[2] = system: IL-6 stimulated STAT3 phosphorylation in CD3+ T cells; assay: Inhibition of IL-6 stimulated pSTAT3 in CD3+ T cells; type: cell-based, human; conditions: statement in words
Excerpt: Assay 10: Cellular JAK Potency Assay: Inhibition of IL-6 Stimulated pSTAT3 in CD3+ T Cells
A protocol analogous to that of Assay 9 was used to determine the potency of the test compound for inhibition of interleukin-6 (IL-6) stimulated STAT3 phosphorylation. An Alexa Fluor 647 conjugated anti-pSTAT3 antibody (pY705, Clone 4/P, BD Biosciences) was used to detect STAT3 phosphorylation.

| SMILES | inhibition of IL-5 mediated human eosinophil survival [1] | inhibition of IL-6 signaling [2] |
| --- | --- | --- |
| CCCN1Cc2[nH]c(-c3n[nH]c4cc(-c5cc(F)c(O)cc5CC)ccc34)nc2C[C@H]1C(=O)N1C[C@@H]2C[C@H]1CN2C [Example 1, ((S)-2-(6-(2-ethyl-5-fluoro-4-hydroxyphenyl)-1H-indazol-3-yl)-5-propyl-4,5,6,7-tetrahydro-3H-imidazo[4,5-c]pyridin-6-yl)((1S,4S)-5-methyl-2,5-diazabicyclo-[2.2.1]heptan-2-yl)methanone] | potently inhibit | inhibit IL-6 signaling |
| CCc1cc(O)c(F)cc1-c1ccc2c(-c3nc4c([nH]3)CN(C(C)C)[C@H](C(=O)N3CC[C@H](N(C)C)C3)C4)n[nH]c2c1 [Example 3] | – | inhibit IL-6 signaling |
